These molecules were tested on HBV rcDNA (assay: HepDE19 assay with bDNA quantitation of HBV rcDNA). Details: HepDE19 cells, Tet-free medium, 7 day-incubation, rcDNA measured by Quantigene 2.0 bDNA assay, top concentration 25 μM; read-out: DE-19 bDNA EC50.
Type: cell-based, hepatitis B virus
Description: HepDE19 Assay with bDNA Quantitation of HBV rcDNA:
HepDE19 cell culture system is a HepG2 (human hepatocarcinoma) derived cell line that supports HBV DNA replication and cccDNA formation in a tetracycline (Tet)-regulated manner and produces HBV rcDNA and a detectable reporter molecule dependent on the production and maintenance of cccDNA (Guo, et al., 2007, J. Virol. 81:12472-12484).
HepDE19 (50,000 cells/well) were plated in 96-well collagen-coated tissue-culture treated microtiter plates in DMEM/F12 medium supplemented with 10% fetal bovine serum, 1% penicillin-streptomycin and 1 μg/mL tetracycline and incubated in a humidified incubator at 37° C. and 5% CO2 overnight. Next day, the cells were switched to fresh medium without tetracycline and incubated for 4 hours at 37° C. and 5% CO2. The cells were treated with fresh Tet-free medium with compounds at concentrations starting at 25 μM and a serial, ½ log, 8-point, titration series in duplicate. The final DMSO concentration in the assay was 0.5%. The plates were incubated for 7 days in a humidified incubator at 37° C. and 5% CO2. Following a 7 day-incubation, the level of rcDNA present in the inhibitor-treated wells was measured using a Quantigene 2.0 bDNA assay kit (Affymetrix, Santa Clara, Calif.) with HBV specific custom probe set and manufacturers instructions. Concurrently, the effect of compounds on cell viability was assessed using replicate plates, plated at a density of 5,000 cells/well and incubated for 4 days, to determine the ATP content as a measure of cell viability using the cell-titer glo reagent (CTG; Promega Corporation, Madison, Wis.) as per manufacturer's instructions. The plates were read using a Victor luminescence plate reader (PerkinElmer Model 1420 Multilabel counter) and the relative luminescence units (RLU) data generated from each well was calculated as % inhibition of the untreated control wells and analyzed using XL-Fit module in Microsoft Excel to determine EC50 and EC90 (bDNA) and CC50 (CTG) values using a 4-parameter curve fitting algorithm.
Representative compounds of the invention were tested for their abilities to inhibit formation of relaxed circular DNA (rcDNA) in a HepDE19 assay, as described elsewhere herein.
For `Cn1cc2c(c1C(=O)Nc1ccc(F)c(Cl)c1)CCC2NC(=O)OCc1nc[nH]n1` (single isomer, unassigned) [Compound 58, (1H-1,2,4-Triazol-3-yl)methyl (1-((3-chloro-4-fluorophenyl)carbamoyl)-2-methyl-2,4,5,6-tetrahydrocyclopenta[c]pyrrol-4-yl)carbamate], the EC50 was 0.97 µM.
`Cn1cc2c(c1C(=O)Nc1ccc(F)c(Cl)c1)CCC2NC(=O)OCc1c[nH]nn1` (single isomer, unassigned) [Compound 59, (1H-1,2,3-Triazol-4-yl)methyl (1-((3-chloro-4-fluorophenyl)carbamoyl)-2-methyl-2,4,5,6-tetrahydrocyclopenta[c]pyrrol-4-yl)carbamate] showed an EC50 of 4.2 µM.
Molecule `Cn1cc2c(c1C(=O)Nc1ccc(F)c(Cl)c1)CCC2NC(=O)OCc1c[nH]nn1` (single isomer, unassigned) [Compound 60, (1H-1,2,3-Triazol-4-yl)methyl (1-((3-chloro-4-fluorophenyl)carbamoyl)-2-methyl-2,4,5,6-tetrahydrocyclopenta[c]pyrrol-4-yl)carbamate] has an EC50 of 0.06 µM.
For `Cc1c2c(c(C(=O)Nc3ccc(F)c(Cl)c3)n1C)CCC2NC(=O)OCc1ncn(C)n1` (single isomer, unassigned) [Compound 82, (1-Methyl-1H-1,2,4-triazol-3-yl)methyl (1-((3-chloro-4-fluorophenyl)carbamoyl)-2,3-dimethyl-2,4,5,6-tetrahydrocyclopenta[c]pyrrol-4-yl)carbamate], the EC50 was 0.11 µM.
`Cc1c2c(c(C(=O)Nc3ccc(F)c(Cl)c3)n1C)CCC2NC(=O)OCc1ncn(C)n1` (single isomer, unassigned) [Compound 83, (1-Methyl-1H-1,2,4-triazol-3-yl)methyl (1-((3-chloro-4-fluorophenyl)carbamoyl)-2,3-dimethyl-2,4,5,6-tetrahydrocyclopenta[c]pyrrol-4-yl)carbamate] was tested, and the EC50 was 3.3 µM.

Same assay, conditions: Hepatitis B virus, HepDE19, 168 h, HepDE19 cells, Tet-free medium, 7 day-incubation, rcDNA measured by Quantigene 2.0 bDNA assay, top concentration 25 μM; read-out: DE-19 bDNA EC50
In the case of `Cc1cc(NC(=O)c2c3c(cn2C)C(NC(=O)OCc2ncn(C)n2)CC3)ccc1F` (single isomer, unassigned) [Compound 62, (1-methyl-1H-1,2,4-triazol-3-yl)methyl (1-((4-fluoro-3-methylphenyl)carbamoyl)-2-methyl-2,4,5,6-tetrahydrocyclopenta[c]pyrrol-4-yl)carbamate], the EC50 is reported as 0.09 µM.
`Cn1cnc(COC(=O)NC2CCc3c2cn(C)c3C(=O)Nc2ccc(F)c(F)c2)n1` (single isomer, unassigned) [Compound 64, (1-methyl-1H-1,2,4-triazol-3-yl)methyl (1-((3,4-difluorophenyl)carbamoyl)-2-methyl-2,4,5,6-tetrahydrocyclopenta[c]pyrrol-4-yl)carbamate] was tested, and the EC50 was 0.41 µM.
For `Cn1cnc(COC(=O)NC2CCc3c2cn(C)c3C(=O)Nc2ccc(F)cc2)n1` (single isomer, unassigned) [Compound 65, (1-methyl-1H-1,2,4-triazol-3-yl)methyl (1-((4-fluorophenyl)carbamoyl)-2-methyl-2,4,5,6-tetrahydrocyclopenta[c]pyrrol-4-yl)carbamate], the EC50 was 0.81 µM.
Molecule `Cn1cnc(COC(=O)NC2CCc3c2cn(C)c3C(=O)Nc2cccc(F)c2)n1` (single isomer, unassigned) [Compound 66, (1-methyl-1H-1,2,4-triazol-3-yl)methyl (1-((3-fluorophenyl)carbamoyl)-2-methyl-2,4,5,6-tetrahydrocyclopenta[c]pyrrol-4-yl)carbamate] has an EC50 of 0.9 µM.
`Cn1cnc(COC(=O)NC2CCc3c2cn(C)c3C(=O)Nc2ccc(F)c(C#N)c2)n1` (single isomer, unassigned) [Compound 67, (1-methyl-1H-1,2,4-triazol-3-yl)methyl (1-((3-cyano-4-fluorophenyl)carbamoyl)-2-methyl-2,4,5,6-tetrahydrocyclopenta[c]pyrrol-4-yl)carbamate] gave an EC50 of 0.06 µM.
`Cn1cnc(COC(=O)NC2CCc3c2cn(C)c3C(=O)Nc2ccnc(Cl)c2)n1` (single isomer, unassigned) [Compound 68, (1-methyl-1H-1,2,4-triazol-3-yl)methyl (1-((2-chloropyridin-4-yl)carbamoyl)-2-methyl-2,4,5,6-tetrahydrocyclopenta[c]pyrrol-4-yl)carbamate] was tested, and the EC50 was 0.66 µM.
Work on `Cn1cnc(COC(=O)NC2CCc3c2cn(C)c3C(=O)Nc2ccc(F)c(C(F)(F)F)c2)n1` (single isomer, unassigned) [Compound 69, (1-Methyl-1H-1,2,4-triazol-3-yl)methyl (1-((4-fluoro-3-(trifluoromethyl)phenyl)carbamoyl)-2-methyl-2,4,5,6-tetrahydrocyclopenta[c]pyrrol-4-yl)carbamate] yielded an EC50 of 0.28 µM.
Molecule `Cn1cnc(COC(=O)NC2CCc3c2cn(C)c3C(=O)Nc2ccc(F)c(C(F)F)c2)n1` (single isomer, unassigned) [Compound 70, (1-Methyl-1H-1,2,4-triazol-3-yl)methyl (1-((3-(difluoromethyl)-4-fluorophenyl)carbamoyl)-2-methyl-2,4,5,6-tetrahydrocyclopenta[c]pyrrol-4-yl)carbamate] has an EC50 of 0.07 µM.
`Cn1cnc(COC(=O)NC2CCc3c2cn(C)c3C(=O)Nc2cc(F)c(F)c(F)c2)n1` (single isomer, unassigned) [Compound 71, (1-methyl-1H-1,2,4-triazol-3-yl)methyl (2-methyl-1-((3,4,5-trifluorophenyl)carbamoyl)-2,4,5,6-tetrahydrocyclopenta[c]pyrrol-4-yl)carbamate] showed an EC50 of 0.18 µM.
`Cn1cnc(COC(=O)NC2CCc3c2cn(C)c3C(=O)Nc2ccnc(C(F)(F)F)c2)n1` (single isomer, unassigned) [Compound 73, (1-methyl-1H-1,2,4-triazol-3-yl)methyl (2-methyl-1-((2-(trifluoromethyl)pyridin-4-yl)carbamoyl)-2,4,5,6-tetrahydrocyclopenta[c]pyrrol-4-yl)carbamate] gave an EC50 of 0.54 µM.
For `Cn1cc2c(c1C(=O)Nc1ccc(F)c(Cl)c1)CCCC2N` (single isomer, unassigned) [Compound 75, 4-Amino-N-(3-chloro-4-fluorophenyl)-2-methyl-4,5,6,7-tetrahydro-2H-isoindole-1-carboxamide], the EC50 was 2.1 µM.
`Cn1cc2c(c1C(=O)Nc1ccc(F)c(Cl)c1)CCCC2NC(=O)C1CC1` (single isomer, unassigned) [Compound 76, N-(3-chloro-4-fluorophenyl)-4-(cyclopropanecarboxamido)-2-methyl-4,5,6,7-tetrahydro-2H-isoindole-1-carboxamide] was tested, and the EC50 was 1 µM.
`Cn1cc2c(c1C(=O)Nc1ccc(F)c(Cl)c1)CCCC2NS(=O)(=O)C1CC1` (single isomer, unassigned) [Compound 78, N-(3-Chloro-4-fluorophenyl)-4-(cyclopropanesulfonamido)-2-methyl-4,5,6,7-tetrahydro-2H-isoindole-1-carboxamide] gave an EC50 of 3.96 µM.
Work on `Cn1cnc(COC(=O)NC2CCc3c2cn(C)c3C(=O)Nc2ccnc(C(F)F)c2)n1` (single isomer, unassigned) [Compound 81, (1-methyl-1H-1,2,4-triazol-3-yl)methyl (1-((2-(difluoromethyl)pyridin-4-yl)carbamoyl)-2-methyl-2,4,5,6-tetrahydrocyclopenta[c]pyrrol-4-yl)carbamate] yielded an EC50 of 0.6 µM.

Same assay, conditions: Hepatitis B virus, HepDE19, 168 h, read-out: DE-19 bDNA EC50 (μM), HepDE19 cells, Tet-free medium, 7 day-incubation, rcDNA measured by Quantigene 2.0 bDNA assay, top concentration 25 μM
In the case of `COC(=O)NC1CCCc2c1cn(C)c2C(=O)Nc1ccc(F)c(Cl)c1` (single isomer, unassigned) [Compound 74, Methyl (1-((3-chloro-4-fluorophenyl)carbamoyl)-2-methyl-4,5,6,7-tetrahydro-2H-isoindol-4-yl)carbamate], the EC50 is reported as 0.61 µM.

Same assay, conditions: read-out: DE-19 bDNA EC50; HepDE19 cells, Tet-free medium, 7 day-incubation, rcDNA measured by Quantigene 2.0 bDNA assay, top concentration 25 μM
For `Cn1ccc(COC(=O)NC2CCCc3c2cn(C)c3C(=O)Nc2ccc(F)c(Cl)c2)n1` (single isomer, unassigned) [Compound 77, (1-Methyl-1H-pyrazol-3-yl)methyl(1-((3-chloro-4-fluorophenyl)carbamoyl)-2-methyl-4,5,6,7-tetrahydro-2H-isoindol-4-yl)carbamate], the EC50 was 0.07 µM.
With `COC(=O)NC1CCCCc2c1cn(C)c2C(=O)Nc1ccc(F)c(Cl)c1` (single isomer, unassigned) [Compound 79, Methyl (1-((3-chloro-4-fluorophenyl)carbamoyl)-2-methyl-2,4,5,6,7,8-hexahydrocyclohepta[c]pyrrol-4-yl)carbamate] the EC50 was 0.73 µM.
